From patent US20120028897A1, “METHODS AND COMPOSITIONS FOR THE TREATMENT OF FLUID RETENTION DISORDERS” (priority 2008, published 2012)

Experiments:
anesthetized rats = experiment: Renal potassium excretion during and after iv peptide infusion in anesthetized rats; assay type: in vivo, rat; details: for FEK vs control: post infusion period, only after the highest doses
Description: Rats were not fasted prior to clearance experiments and ranged in weight from 250-340 g at the time of study. Anesthesia was induced with an intraperitoneal injection of pentobarbital sodium (55 mg/kg BW) and maintained at a surgical plane by intermittent intravenous supplementation. Core temperature was maintained at 37° C. by a servo-controlled, heated operating table. Animals breathed spontaneously through a PE240 cannula inserted into the trachea. A jugular vein was catheterized with PE50 cannula tubing for intravenous infusion of isotonic saline containing FITC-labeled inulin (0.4% W/V, Sigma, St Louis Mo.) and two PE10 cannulae, one for supplemental anesthetic and the other for peptide infusions (described below in the experimental protocol section). The ureters were exposed through a midline ventral incision and cannulated with PE10 tubing about one cm from each kidney. Urine was collected over 20 min periods and the volume estimated by weight. A femoral artery was cannulated with PE50 tubing for continuous measurement of arterial blood pressure and intermittent blood samples (50 μl), taken at the mid point of each urine collection.
Arterial blood pressure was measured with a pressure transducer connected to a cardiovascular analyzer (Model 50110, Stoelting Instruments Wood Dale, Ill.). Left renal blood flow was measured in some rats with a flow probe positioned on the left renal artery and connected to a blood flow monitor (model 1 PRB probe and model T420 monitor, Transonic Systems Inc. Ithaca N.Y.). Arterial pressure, heart rate, and renal blood flow were digitized with an A/D converter (Keithley instruments, Cleveland, Ohio Model KUSB 3100) for display and storage on a Windows-based personal computer using open layers data acquisition software (Dtx_Ez, Data Translation Inc, Marlboro, Mass.). Sodium and potassium concentrations in plasma and urine were measured by flame photometry (Model 943, Instrumentation Laboratory Co., Lexington Mass.). Glomerular filtration rate (GFR) was measured as the renal clearance rate of FITC-labeled inulin
After post-surgical equilibration (−60 min) and three 20 min control clearance periods, huUgnA or B was infused into the jugular vein at 10 μl/min over a 60 min period, followed by a return to isotonic saline for the remainder of the experiment. The infused doses of huUgnA were 12, 25, 50, 100, or 200 nmol/kg BW in a total of 38 rats; huUgnB doses were 9, 18, 35, 70, and 140 nmol/kg BW in 35 rats. A UgnA mimetic, E. coli STh (ST-core), was infused into a third group of 32 rats at doses of 17, 32, 66, 133, and 266 nmol/kg. Renal excretory responses to these infusions were slow to develop and long lasting, so clearance periods were continued for 2-3 hr after the termination of the peptide infusion. This protracted time course limited protocols to one dose of one peptide in each rat. A control group of 10 rats received isotonic saline at 10 μl/min in place of the peptide infusion, but was otherwise treated in the same way as the experimental groups.
Sodium and potassium excretion rates are expressed as absolute values (UNaV and UKV) or factored by filtered load to provide fractional excretion (FENa and FEK). Glomerular filtration rate (GFR) was equated with inulin clearance. The net natriuretic response to peptide infusions was assessed by summing total Na excretion during infusion and post-infusion collection periods in each rat after subtraction of corresponding mean values obtained from the control group. The cumulative net excretion obtained in this way provides a measure of the natriuretic response to each dose of peptide infused. Results from both kidneys were averaged for each rat before calculating group means±sem.
Group comparisons were made with one way analysis of variance (ANOVA) using peptide doses as column variables. […]

[1] = Interconversion of huUgn A and B isomers in vitro (storage at −80° C.; pH 4, 50° C.); assay type: physicochemical; details: LC-MS at periodic intervals
Description: FIG. 2C is a graph showing the amount of “UgnA like” activity as a function of time in cells treated with either huUgnA and huUgnB. The A and B isomers (filled and open circles, respectively) interconvert slowly in vitro. Peptides were incubated at 50° C. in 1 mM citrate buffer (pH 4) for either 0, 24, or 48 hr. Samples were then diluted into bioassay medium, the pH was adjusted to 7.0, and activity was measured in the T84 cell bioassay. A huUgnA standard curve was generated in the same assay, and cyclic GMP responses were converted to recoveries of “UgnA-like” peptide by interpolation on this standard curve.
HPLC analysis and mass spectroscopy of Ugn isomers. The integrity and purity of huUgnA and B isomer preparations were confirmed by liquid chromatography/mass spectroscopy (LC-MS) analysis. The two Ugn isomers have different retention times on a reverse phase HPLC column (FIG. 1, dashed trace; huUgnA elutes ˜0.35 minutes before huUgnB). Separations were performed on a Hypersil Gold AQ 2.1×50 mm column from Thermo Fisher Scientific Inc (Waltham, Mass.) equilibrated in 98% buffer A (0.1% formic acid), 2% buffer B (85:10:5 Acetonitrile/Isopropyl Alcohol/5 mM NH4OAc pH 5.8) with a flow rate of 0.4 ml/min on an Acquity HPLC system. […]

CC(C)C[C@H](NC(=O)[C@@H]1CSSC[C@@H]2NC(=O)[C@H](CC(C)C)NC(=O)[C@H](CCC(=O)O)NC(=O)[C@@H](NC(=O)[C@H](CC(=O)O)NC(=O)[C@H](CC(=O)O)NC(=O)[C@@H](N)CC(N)=O)CSSC[C@H](NC(=O)[C@H](C)NC(=O)[C@H](C(C)C)NC(=O)[C@H](CC(N)=O)NC(=O)[C@H](C(C)C)NC2=O)C(=O)N[C@@H]([C@@H](C)O)C(=O)NCC(=O)N1)C(=O)O (single isomer, unassigned) [huUgnB, Asn Asp Asp Cys Glu Leu Cys Val Asn Val Ala Cys Thr Gly Cys Leu]
FEK (fractional potassium excretion) (anesthetized rats; huUgnB 9 nmol, Infuse): 30.6 ± 6.1 % of filtered
UKV (potassium excretion) (anesthetized rats; huUgnB 9 nmol, Infusion): 840 ± 83 nEq/min/g KW
FEK (fractional potassium excretion) (anesthetized rats; huUgnB 9 nmol, Post-infuse): 34.8 ± 3.1 % of filtered
UKV (potassium excretion) (anesthetized rats; huUgnB 9 nmol, Post-infuse): 943 ± 82 nEq/min/g KW
FEK (fractional potassium excretion) (anesthetized rats; huUgnB 9 nmol, Pre-infuse): 23.4 ± 6.0 % of filtered
UKV (potassium excretion) (anesthetized rats; huUgnB 9 nmol, Pre-infuse): 655 ± 79 nEq/min/g KW
FEK (fractional potassium excretion) (anesthetized rats; huUgnB 18 nmol, Infuse): 29.6 ± 3.2 % of filtered
UKV (potassium excretion) (anesthetized rats; huUgnB 18 nmol, Infusion): 860 ± 72 nEq/min/g KW
FEK (fractional potassium excretion) (anesthetized rats; huUgnB 18 nmol, Post-infuse): 39.2 ± 2.6 % of filtered
UKV (potassium excretion) (anesthetized rats; huUgnB 18 nmol, Post-infuse): 1014 ± 79 nEq/min/g KW
FEK (fractional potassium excretion) (anesthetized rats; huUgnB 18 nmol, Pre-infuse): 20.0 ± 2.3 % of filtered
UKV (potassium excretion) (anesthetized rats; huUgnB 18 nmol, Pre-infuse): 592 ± 71 nEq/min/g KW
FEK (fractional potassium excretion) (anesthetized rats; huUgnB 35 nmol, Infuse): 32.6 ± 3.7 % of filtered
UKV (potassium excretion) (anesthetized rats; huUgnB 35 nmol, Infusion): 837 ± 84 nEq/min/g KW
FEK (fractional potassium excretion) (anesthetized rats; huUgnB 35 nmol, Post-infuse): 38.9 ± 3.0 % of filtered
UKV (potassium excretion) (anesthetized rats; huUgnB 35 nmol, Post-infuse): 998 ± 85 nEq/min/g KW
FEK (fractional potassium excretion) (anesthetized rats; huUgnB 35 nmol, Pre-infuse): 25.7 ± 2.4 % of filtered
UKV (potassium excretion) (anesthetized rats; huUgnB 35 nmol, Pre-infuse): 729 ± 79 nEq/min/g KW
FEK (fractional potassium excretion) (anesthetized rats; huUgnB 70 nmol, Infuse): 37.7 ± 9.8 % of filtered
UKV (potassium excretion) (anesthetized rats; huUgnB 70 nmol, Infusion): 1297 ± 209 nEq/min/g KW
FEK (fractional potassium excretion) (anesthetized rats; huUgnB 70 nmol, Post-infuse): 47.1 ± 5.6 % of filtered
UKV (potassium excretion) (anesthetized rats; huUgnB 70 nmol, Post-infuse, * p<0.05 vs time control): 1491 ± 183* nEq/min/g KW
FEK (fractional potassium excretion) (anesthetized rats; huUgnB 70 nmol, Pre-infuse): 20.4 ± 5.5 % of filtered
UKV (potassium excretion) (anesthetized rats; huUgnB 70 nmol, Pre-infuse): 791 ± 265 nEq/min/g KW
FEK (fractional potassium excretion) (anesthetized rats; huUgnB 140 nmol, Infuse): 49.2 ± 3.6 % of filtered
UKV (potassium excretion) (anesthetized rats; huUgnB 140 nmol, Infusion): 1086 ± 124 nEq/min/g KW
UKV (potassium excretion) (anesthetized rats; huUgnB 140 nmol, Post-infuse): 1396 ± 89 nEq/min/g KW
FEK (fractional potassium excretion) (anesthetized rats; huUgnB 140 nmol, Post-infuse, ** p<0.01 vs time control): 58.4 ± 3.5** % of filtered
FEK (fractional potassium excretion) (anesthetized rats; huUgnB 140 nmol, Pre-infuse): 28.3 ± 0.9 % of filtered
UKV (potassium excretion) (anesthetized rats; huUgnB 140 nmol, Pre-infuse): 770 ± 78 nEq/min/g KW
FEK vs control (anesthetized rats): increased over control levels
conversion from one isoform to the other during storage [1]: did not occur

CC(C)C[C@H](NC(=O)[C@@H]1CSSC[C@@H]2NC(=O)[C@H](CC(C)C)NC(=O)[C@H](CCC(=O)O)NC(=O)[C@@H](NC(=O)[C@H](CC(=O)O)NC(=O)[C@H](CC(=O)O)NC(=O)[C@@H](N)CC(N)=O)CSSC[C@H](NC(=O)[C@H](C)NC(=O)[C@H](C(C)C)NC(=O)[C@H](CC(N)=O)NC(=O)[C@H](C(C)C)NC2=O)C(=O)N[C@@H]([C@@H](C)O)C(=O)NCC(=O)N1)C(=O)O (single isomer, unassigned) [huUgnA, Asn Asp Asp Cys Glu Leu Cys Val Asn Val Ala Cys Thr Gly Cys Leu, reference compound]
increase in UKV during or after infusion (anesthetized rats; any dose tested): no statistically significant increases
FEK (fractional potassium excretion) (anesthetized rats; huUgnA 12 nmol, Infuse): 29.8 ± 3.6 % of filtered
UKV (potassium excretion) (anesthetized rats; huUgnA 12 nmol, Infusion): 1097 ± 54 nEq/min/g KW
FEK (fractional potassium excretion) (anesthetized rats; huUgnA 12 nmol, Post-infuse): 34.9 ± 2.7 % of filtered
UKV (potassium excretion) (anesthetized rats; huUgnA 12 nmol, Post-infuse): 1299 ± 51 nEq/min/g KW
FEK (fractional potassium excretion) (anesthetized rats; huUgnA 12 nmol, Pre-infuse): 18.8 ± 2.3 % of filtered
UKV (potassium excretion) (anesthetized rats; huUgnA 12 nmol, Pre-infuse): 709 ± 74 nEq/min/g KW
FEK (fractional potassium excretion) (anesthetized rats; huUgnA 25 nmol, Infuse): 40.7 ± 3.5 % of filtered
UKV (potassium excretion) (anesthetized rats; huUgnA 25 nmol, Infusion): 1292 ± 80 nEq/min/g KW
FEK (fractional potassium excretion) (anesthetized rats; huUgnA 25 nmol, Post-infuse): 46.5 ± 3.8 % of filtered
UKV (potassium excretion) (anesthetized rats; huUgnA 25 nmol, Post-infuse): 1309 ± 68 nEq/min/g KW
FEK (fractional potassium excretion) (anesthetized rats; huUgnA 25 nmol, Pre-infuse): 25.6 ± 2.4 % of filtered
UKV (potassium excretion) (anesthetized rats; huUgnA 25 nmol, Pre-infuse): 780 ± 69 nEq/min/g KW
FEK (fractional potassium excretion) (anesthetized rats; huUgnA 50 nmol, Infuse): 32.0 ± 2.7 % of filtered
UKV (potassium excretion) (anesthetized rats; huUgnA 50 nmol, Infusion): 988 ± 66 nEq/min/g KW
FEK (fractional potassium excretion) (anesthetized rats; huUgnA 50 nmol, Post-infuse): 36.3 ± 3.6 % of filtered
UKV (potassium excretion) (anesthetized rats; huUgnA 50 nmol, Post-infuse): 1180 ± 57 nEq/min/g KW
FEK (fractional potassium excretion) (anesthetized rats; huUgnA 50 nmol, Pre-infuse): 20.8 ± 2.1 % of filtered
UKV (potassium excretion) (anesthetized rats; huUgnA 50 nmol, Pre-infuse): 722 ± 52 nEq/min/g KW
FEK (fractional potassium excretion) (anesthetized rats; huUgnA 100 nmol, Infuse): 28.0 ± 3.5 % of filtered
UKV (potassium excretion) (anesthetized rats; huUgnA 100 nmol, Infusion): 878 ± 60 nEq/min/g KW
FEK (fractional potassium excretion) (anesthetized rats; huUgnA 100 nmol, Post-infuse): 29.9 ± 2.9 % of filtered
UKV (potassium excretion) (anesthetized rats; huUgnA 100 nmol, Post-infuse): 970 ± 72 nEq/min/g KW
FEK (fractional potassium excretion) (anesthetized rats; huUgnA 100 nmol, Pre-infuse): 19.3 ± 2.5 % of filtered
UKV (potassium excretion) (anesthetized rats; huUgnA 100 nmol, Pre-infuse): 602 ± 51 nEq/min/g KW
FEK (fractional potassium excretion) (anesthetized rats; huUgnA 200 nmol, Infuse): 40.8 ± 7.7 % of filtered
UKV (potassium excretion) (anesthetized rats; huUgnA 200 nmol, Infusion): 1203 ± 161 nEq/min/g KW
UKV (potassium excretion) (anesthetized rats; huUgnA 200 nmol, Post-infuse): 1380 ± 73 nEq/min/g KW
FEK (fractional potassium excretion) (anesthetized rats; huUgnA 200 nmol, Post-infuse, *** p<0.005 vs time control): 57.5 ± 6.7*** % of filtered
FEK (fractional potassium excretion) (anesthetized rats; huUgnA 200 nmol, Pre-infuse): 27.7 ± 5.9 % of filtered
UKV (potassium excretion) (anesthetized rats; huUgnA 200 nmol, Pre-infuse): 860 ± 118 nEq/min/g KW
FEK vs control (anesthetized rats): increased over control levels
conversion from one isoform to the other during storage [1]: did not occur
